Consider four molecules from BindingDB's records for doi:10.1016/j.bioorg.2014.08.007 (Central University of Punjab, 2014).

The target in the assay is Xanthine dehydrogenase/oxidase (Bos taurus, UniProt P80457). In words: XO inhibitory assay. The following applies: pH 7.5; 25 °C. As for the experimental part: The reaction mixture contained 1.5 mL of 50 mM potassium phosphate buffer (pH 7.5), 1 mL test sample solutions (5, 10, 25, 50, and 100 µM) was dissolved in DMSO, 0.5 mL of XO enzyme solution (0.2 units/mL of xanthine oxidase in phosphate buffer). The reaction mixture was pre-incubated at room temperature for 15 min, followed by the addition of 1 mL of substrate solution (0.10 mM of xanthine). The mixture was further incubated at room temperature for 30 min and stopped with the addition of 1 mL of 1 M HCl.
Sequence of Xanthine dehydrogenase/oxidase (P80457 whole entry): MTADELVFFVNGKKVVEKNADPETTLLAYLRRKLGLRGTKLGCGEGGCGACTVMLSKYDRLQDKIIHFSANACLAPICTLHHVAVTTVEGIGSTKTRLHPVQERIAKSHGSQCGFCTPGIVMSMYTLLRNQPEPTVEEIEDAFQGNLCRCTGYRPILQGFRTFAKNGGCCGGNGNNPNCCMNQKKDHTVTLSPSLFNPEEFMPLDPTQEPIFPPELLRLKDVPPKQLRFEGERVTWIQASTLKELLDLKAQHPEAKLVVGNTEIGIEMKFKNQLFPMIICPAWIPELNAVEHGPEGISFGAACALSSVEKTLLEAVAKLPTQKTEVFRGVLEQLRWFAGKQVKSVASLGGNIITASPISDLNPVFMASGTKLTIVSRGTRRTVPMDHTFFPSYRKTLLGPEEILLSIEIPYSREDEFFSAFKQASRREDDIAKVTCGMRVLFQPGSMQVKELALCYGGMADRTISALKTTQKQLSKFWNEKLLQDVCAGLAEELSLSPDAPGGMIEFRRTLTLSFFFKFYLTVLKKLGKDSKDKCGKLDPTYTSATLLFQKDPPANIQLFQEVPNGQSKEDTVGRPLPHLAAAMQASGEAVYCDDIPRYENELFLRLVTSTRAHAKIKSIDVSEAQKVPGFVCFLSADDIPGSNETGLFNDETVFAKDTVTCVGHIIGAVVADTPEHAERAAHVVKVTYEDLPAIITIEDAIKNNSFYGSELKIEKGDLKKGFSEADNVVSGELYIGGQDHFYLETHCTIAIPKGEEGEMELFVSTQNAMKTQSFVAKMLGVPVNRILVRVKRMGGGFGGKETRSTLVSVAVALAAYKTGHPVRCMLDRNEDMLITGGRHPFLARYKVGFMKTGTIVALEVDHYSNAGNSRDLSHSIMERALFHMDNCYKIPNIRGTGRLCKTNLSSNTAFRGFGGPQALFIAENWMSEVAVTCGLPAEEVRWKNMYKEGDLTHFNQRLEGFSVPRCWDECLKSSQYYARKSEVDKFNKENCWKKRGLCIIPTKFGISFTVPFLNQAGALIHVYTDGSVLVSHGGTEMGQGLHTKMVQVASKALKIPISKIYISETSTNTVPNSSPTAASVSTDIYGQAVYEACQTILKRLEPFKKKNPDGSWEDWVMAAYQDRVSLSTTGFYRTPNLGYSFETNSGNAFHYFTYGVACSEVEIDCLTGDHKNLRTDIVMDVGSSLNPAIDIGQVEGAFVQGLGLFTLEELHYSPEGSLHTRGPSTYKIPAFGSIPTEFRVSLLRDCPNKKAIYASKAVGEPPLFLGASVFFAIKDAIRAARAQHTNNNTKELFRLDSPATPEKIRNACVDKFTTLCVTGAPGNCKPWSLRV
Molecule `Nc1ccccc1-c1cc(-c2ccccc2)n[nH]1` had a concentration for half-maximal inhibition (IC50) of 41.7 µM. `Oc1c(Cl)cc(Cl)cc1C1Nc2ccccc2-c2cc(-c3ccccc3)nn21` (centres undefined) [2,4‐dichloro‐6‐{2‐phenyl‐5H,6H‐pyrazolo[1,5‐ c]quinazolin‐5‐yl}phenol (6g)]: the IC50 is 11 µM. The figure for `COc1ccc(C2Nc3ccccc3-c3cc(-c4ccccc4)nn32)cc1OC` (centres undefined) [5‐(3,4‐dimethoxyphenyl)‐2‐phenyl‐5H,6H‐ pyrazolo[1,5‐c]quinazoline (6e)] is 43.6 µM; for `O=[N+]([O-])c1cccc(C2Nc3ccccc3-c3cc(-c4ccccc4)nn32)c1` (centres undefined) [5‐(3‐nitrophenyl)‐2‐phenyl‐5H,6H‐pyrazolo[1,5‐ c]quinazoline (6h)] it is 20.9 µM.

In general, IC50 refers to the concentration that inhibits the measured activity by half. The low end stands for higher potency, the high end for lower potency.
